This is an account of results in PMC10068418 (Journal of Antimicrobial Chemotherapy, 2023).

Series [1] has as its system SARS-CoV-2 hCoV-19/Japan/TY/WK-521 strain. Description: microbe, parasite or virus in culture. The note with it: read-out: CPE EC50. Type of series: cell-based.
The nature of series [2]: in vitro. The note with it: female, BALB/cAJcl, mouse, serum.
Series [3] deals with SARS-CoV-2. The note with it: Phase 2a and Phase 2b studies; cited from earlier work.
The nature of series [4]: in vitro. The settings on record: male, Syrian, hamster, serum.
The subject of series [5] is SARS-CoV-2 Omicron BA.2. Details: species or system Syrian hamsters. The settings on record: hamster, in vivo.
The subject of series [6] is SARS-CoV-2 Omicron BA.1 strain (hCoV-19/Japan/TY38-873/2021). It is filed as cell-based. The settings on record: read-out: Viral titre EC90.
Series [7] has as its system SARS-CoV-2 Delta strain (hCoV-19/Japan/TY11-927/2021). Type of series: cell-based. The settings on record: read-out: Viral titre EC90.
Series [8] in a line: Protein binding of nirmatrelvir in hamster serum by equilibrium dialysis. It is filed as in vitro ADME, Syrian hamsters. The settings on record: male, Syrian, pH 7.4. In general terms: In equilibrium dialysis free small molecules cross a membrane that holds back macromolecules.
For series [9] the following is noted: BALB/cAJcl, mouse, in vivo.
Series [10] can be described thus: Protein binding of nirmatrelvir in mouse serum by equilibrium dialysis. It is filed as in vitro ADME, BALB/cAJcl mice. The note with it: female, BALB/cAJcl, pH 7.4.
[11] abbreviates: Severe acute respiratory syndrome coronavirus 2, HEK-293T, 72 h.

Each structure is given as a SMILES string. Several values for one entry are separate records, joined by “and”; a condition that tells them apart may be missing. Identical values can stand only once. Like-named read-outs stand apart in the source and are kept apart here.

In the case of `Cn1cnc(Cn2c(=O)[nH]/c(=N\c3cc4cn(C)nc4cc3Cl)n(Cc3cc(F)c(F)cc3F)c2=O)n1` [Ensitrelvir, ensitrelvir fumaric acid], the EC50 in [1] (setting [11]) came out at 0.027 ± 0.002 µM. Moreover, the free fraction (fraction unbound) in series [2] is 0.024. Besides, the “Viral titres in nasal lavage fluid” value in series [3] is given as “significantly reduced viral titres”. In series [4], this compound had an unbound share (fraction unbound) of 0.017. Besides, in series [5], the “Antiviral activity in the lungs (viral titres)” value is “failed to show antiviral activity”, the “Antiviral activity in the nasal turbinates compared with that of nirmatrelvir” value was “greater antiviral activity” and the “Lowering of lung viral titres compared with 750/250 mg/kg nirmatrelvir” value is given as “less effective”.
In the case of `O=c1nc(NO)ccn1[C@@H]1O[C@H](CO)[C@@H](O)[C@H]1O` [NHC, β-D-N^4-hydroxycytidine], the concentration for a half-maximal effect (EC50) in series [1] amounted to 4 ± 3.5 µM. For the same compound, the 90% effect concentration (EC90) in series [6] is 2.35 µM and 3.66 µM; in series [7], 3.83 µM and 6.72 µM.
On to `CC(C)(C)[C@H](NC(=O)C(F)(F)F)C(=O)N1C[C@H]2[C@@H]([C@H]1C(=O)N[C@H](C#N)C[C@@H]1CCNC1=O)C2(C)C` [Nirmatrelvir, nirmatrelvir], for which, in series [8], the fraction unbound at 24 h, 4 µM was 0.596. In [1] (setting [11]), the EC50 is 0.041 ± 0.013 µM. Further, in [9], the “f-C24h unbound drug plasma concentration” value is recorded as 676 ± 609 ng/mL, the “f-C72h unbound drug plasma concentration” value was determined as 1490 ± 430 ng/mL, the “t-C24h total plasma concentration” value was determined as 1010 ± 910 ng/mL and the “t-C48h total plasma concentration” value is 2050 ± 610 ng/mL. In addition, the “t-C72h total plasma concentration” value in series [9] was 2230 ± 650 ng/mL. This compound gave a fraction unbound at 24 h, 4 µM in series [10] of 0.669.
In the case of `CCC(CC)COC(=O)[C@H](C)N[P@](=O)(OC[C@H]1O[C@@](C#N)(c2ccc3c(N)ncnn23)[C@H](O)[C@@H]1O)Oc1ccccc1` [Remdesivir, remdesivir], in series [1] (setting [11]), the EC50 is 0.012 ± 0.002 µM.

Usually EC50 stands for the concentration giving half of the maximal effect. The term fraction unbound denotes the share of the substance not bound to proteins or other matrix. In general, EC90 refers to the concentration needed for an effect of 90%.
